Data: USRE37781E1, “Substituted cyclic carbonyls and derivatives thereof useful as retroviral protease inhibitors” (DuPont Pharmaceuticals Company, priority 1991, dated 2002)
Where two headings read alike, the source gives them in different places.

Legend:
[1] = molecular target: single-chain tethered dimer of HIV protease (Human immunodeficiency virus 1, UniProt P04585); experiment: biochemical; type: biochemical
Protocol: HIV Protease Inhibition Assay—HPLC Method
Active protease was prepared as described therein by extraction with 67% acetic acid, dilution 33-fold with water, dialysis against water and then against a “refolding buffer” consisting of 20 mM MES, 1 mM dithiothreitol and 10% glycerol. Protease was stored as a stock preparation at 10 uM in refolding buffer.
Substrate: Peptide of sequence: aminobenzoyl-Ala-Thr-His-Gln-Val-Tyr-Phe(NO2)-Val-Arg-Lys-Ala containing p-nitrophenylalanine, was prepared by solid phase synthesis as previously described Cheng et al., op.cit. Stock solutions of 2 mM substrate were prepared in DMSO.
Inhibitory compounds were dissolved in sufficient DMSO to make 3 mM stock solutions. All further dilutions were prepared in “assay buffer”: 1M NaCl, 50 mM MES, pH 5.5, 1 mM EDTA, 1 mM DTT, […] glycerol.
Enzyme reaction: In a 2 ml screw-cap centrifuge tube were added 50 ul protease (final concentration 0.25 nM) and 0.1 ml inhibitory compound (final concentration […]). After 15 min preincubation at room temperature, the reaction was started with the addition of 0.05 ml substrate (final concentration 5 uM). Incubation was carried out at 30 C. for 1 hr. The reaction was stopped with 1 ml 0.1M ammonium hydroxide.
HPLC measurement of product formation: The product (aminobenzoyl-Ala-Thr-His-Gln-Val-Tyr) was separated from substrate on a Pharmacia MonoQ anion exchange column. The injection volume was 0.2 ml. The mobile phases were: A (20 mM trisHCl, pH 9.0, 0.02% sodium Azide, 10% acetonitrile), B (20 mM tris HCl, pH 9.0, 0.02% sodium azide, 0.5M ammonium formate, 10% acetonitrile). The mobile phases were pumped at 1 ml/min, with a gradient from 0 to 30% B in 5 min, 100% B for 4 min to wash the column, and a re-equilibration for 4 min. The retention time of the product was 3.6 min. Detection with a Shimadzu model RF535 fluorescence monitor was at 330 nm (excitation) and 430 (emission).

[2] = system: HIV-1 (RF) in MT-2 cells; experiment: microbe, parasite or virus in culture; type: cell-based
Procedure, shortened: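 Read-out: gag and pol viral RNA captured by 5′-biotinylated oligonucleotides on streptavidin-coated wells, detected with alkaline phosphatase-linked reporter oligonucleotides, calibrated against BH10 in vitro transcripts. Virus stocks (RF, MN, IIIB) come from H9 cultures; MT-2 host cells kept in RPMI 1640, 5% FCS.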

[3] = molecular target: T1, HIV protease (Human immunodeficiency virus type 1 group M subtype B, UniProt P04585); experiment: biochemical; set-up: species or system HIV-1; conditions: Ki
T1 construct: plasmid containing HIV protease under the control of an inducible T7 promoter; made in house; host or cells: E. coli (inclusion bodies, T7 promoter)
Protocol: HIV Protease Inhibition Assay—Spectroscopic Method
Inclusion bodies were solubilized in 8M urea, 50 mM tris pH 8.0. Protease activity was recovered by dilution 20-fold into buffer containing 50 mM sodium acetate pH 5.5, 1 mM EDTA, 10% glycerol and 5% ethylene glycol. Enzyme was used at a final concentration of 1.0-10 ug/ml.
Stock solutions of 10 mM were prepared in DMSO.
All further dilutions were done in DMSO.

[4] = Human immunodeficiency virus 1, MT2, HIV RNA assay, HIV-1 infected MT-2 cells, class symbols, read-out: IC90
[5] = HIV protease inhibition, class symbols, read-out: Ki
[6] = Human immunodeficiency virus 1, MT2, Table 1c, read-out: IC90

## O=C1N(Cc2ccc3ccccc3c2)CC(O)C(Cc2ccccc2)N1Cc1ccc2ccccc2c1 (stereo not drawn) [30F]
[1]; Table 2t, read-out: Ki
  Ki: > 1000 nM

## COC(=O)c1cccc(CN2C(=O)N(Cc3cccc(C(=O)OC)c3)C(Cc3ccccc3)C(O)C(O)C2Cc2ccccc2)c1 (stereo not drawn) [Example 5T]
[1]
  Ki: < 10 nM
[2]; [4]
  IC90: < 10 µg/mL

## O=C1N(CCCCCCO)CC(O)C(Cc2ccccc2)N1CCCCCCO (stereo not drawn) [30G]
[1]; Table 2t, read-out: Ki
  Ki: > 1000 nM

## O=C(O)c1ccc(CN2C(=O)N(Cc3ccc(C(=O)O)cc3)C(Cc3ccccc3)C(O)C(O)C2Cc2ccccc2)cc1 (stereo not drawn) [Example 6B]
[1]; [5]
  Ki: 10 to 1000 nM
[2]; HIV RNA assay, HIV-1 infected MT-2 cells, class symbols
  IC90: ++ (++=10 to 100 μg/mL)

## COc1cccc(CN2C(=O)N(Cc3cccc(OC)c3)C(Cc3ccccc3)C(O)C(O)C2Cc2ccccc2)c1 (stereo not drawn) [Example 6Q]
[1]
  Ki: < 10 nM
[2]; [4]
  IC90: < 10 µg/mL

## [2H]c1c([2H])c([2H])c(C([2H])([2H])N2C(=O)N(C([2H])([2H])c3c([2H])c([2H])c([2H])c([2H])c3[2H])C(Cc3ccccc3)C(O)C(O)C2Cc2ccccc2)c([2H])c1[2H] (stereo not drawn) [Example 4H]
[1]
  Ki: < 10 nM
[2]; [4]
  IC90: < 10 µg/mL

## O=C1N(Cc2ccccc2)CC(O)C(Cc2ccccc2)N1Cc1ccccc1 (racemic) [30A]
[1]; Table 2t, read-out: Ki
  Ki: > 1000 nM

## O=C1N(CC2CC2)CC(O)C(Cc2ccccc2)N1CC1CC1 (stereo not drawn) [30E]
[1]; Table 2t, read-out: Ki
  Ki: > 1000 nM

## O=C1N(Cc2ccc(O)cc2)CC(O)C(Cc2ccccc2)N1Cc1ccc(O)cc1 (stereo not drawn) [30D]
[1]; Table 2t, read-out: Ki
  Ki: > 1000 nM

## O=C1NC(Cc2ccccc2)C(O)C(O)C(Cc2ccccc2)N1CC1CC1 (stereo not drawn) [Example 4X]
[1]; [5]
  Ki: 10 to 1000 nM

## O=C1N(Cc2ccccc2)CCC(O)C(Cc2ccccc2)N1Cc1ccccc1 (stereo not drawn) [30L]
[1]; Table 2t, read-out: Ki
  Ki: > 1000 nM

## O=C1N(Cc2ccc(CO)cc2)CCC(O)C(Cc2ccccc2)N1Cc1ccc(CO)cc1 (stereo not drawn) [30N]
[1]; Table 2t, read-out: Ki
  Ki: 10 to 1000 nM

## O=C1N(CC2CC2)CCC(O)C(Cc2ccccc2)N1CC1CC1 (stereo not drawn) [30O]
[1]; Table 2t, read-out: Ki
  Ki: > 1000 nM

## O=C1N(Cc2ccccc2)CCC(=NO)C(Cc2ccccc2)N1Cc1ccccc1 (stereo not drawn) [30T]
[1]; Table 2t, read-out: Ki
  Ki: > 1000 nM

## O=C1CCN(Cc2ccccc2)C(=O)N(Cc2ccccc2)C1Cc1ccccc1 (stereo not drawn) [30S]
[1]; Table 2t, read-out: Ki
  Ki: > 1000 nM

## O=C1N(Cc2ccc(CO)cc2)CC(O)C(Cc2ccccc2)N1Cc1ccc(CO)cc1 (stereo not drawn) [30B]
[1]; Table 2t, read-out: Ki
  Ki: > 1000 nM

## N#CN=C1N(Cc2cccc(C=NO)c2)C(Cc2ccccc2)C(O)C(O)C(Cc2ccccc2)N1Cc1cccc(C=NO)c1 (stereo not drawn) [Example 1CQ]
[3]
  Ki: < 10 nM
[2]; [6]
  IC90: < 10 µg/mL
other
  melting point: 121.2 °C

## N#Cc1cccc(CN2CC(O)C(Cc3ccccc3)N(Cc3cccc(C#N)c3)C2=O)c1 (stereo not drawn) [30C]
[1]; Table 2t, read-out: Ki
  Ki: > 1000 nM

## O=C1N(Cc2ccc3ccccc3c2)CCC(O)C(Cc2ccccc2)N1Cc1ccc2ccccc2c1 (stereo not drawn) [30M]
[1]; Table 2t, read-out: Ki
  Ki: > 1000 nM

## N#CN=C1N(CC2CCCCC2)C(Cc2ccccc2)C(O)C(O)C(Cc2ccccc2)N1CC1CCCCC1 (stereo not drawn) [Example 1CJ]
[3]
  Ki: < 10 nM
[2]; [6]
  IC90: < 10 µg/mL
other
  melting point: 96.4 °C

## CC(C)CCN1C(=NC#N)N(CCC(C)C)C(Cc2ccccc2)C(O)C(O)C1Cc1ccccc1 (stereo not drawn) [Example 1CM]
[3]
  Ki: 10 to 1000 nM
[2]; [6]
  IC90: < 10 µg/mL
other
  melting point: 76.1 °C

## N#CN=C1N(Cc2ccc(N)cc2)C(Cc2ccccc2)C(O)C(O)C(Cc2ccccc2)N1Cc1ccc(N)cc1 (stereo not drawn) [Example 1CE]
[3]
  Ki: 10 to 1000 nM
[2]; [6]
  IC90: < 10 µg/mL
other
  melting point: 226.3 °C

## O=S1(=O)N(Cc2ccc3ccccc3c2)CC(O)C(Cc2ccccc2)N1Cc1ccc2ccccc2c1 (stereo not drawn) [30I]
[1]; Table 2t, read-out: Ki
  Ki: 10 to 1000 nM

## N#CN=C1N(Cc2cccc(C#N)c2)C(Cc2ccccc2)C(O)C(O)C(Cc2ccccc2)N1Cc1cccc(C#N)c1 (stereo not drawn) [Example 1CH]
[3]
  Ki: 10 to 1000 nM
[2]; [6]
  IC90: < 10 µg/mL
other
  melting point: 108.5 °C

## N#CN=C1N(Cc2ccc(O)cc2)C(Cc2ccccc2)C(O)C(O)C(Cc2ccccc2)N1Cc1ccc(O)cc1 (stereo not drawn) [Example 1BU]
[3]
  Ki: < 10 nM
[2]; [6]
  IC90: < 10 µg/mL
other
  melting point: 103.3 °C

## O=S1(=O)N(CC2CC2)CC(O)C(Cc2ccccc2)N1CC1CC1 (stereo not drawn) [30J]
[1]; Table 2t, read-out: Ki
  Ki: > 1000 nM
